Experimental findings from paper PMC12526212, “Novel Isolongifolenone-Based Caprolactam Derivatives as Potential Anticancer Agents via the p53/mTOR/Autophagy Pathway” (Molecules, 2025) are described below.

The test system of one test is MCF-7. Briefly: CCK-8 antiproliferative assay, MCF-7. The format is cell-based. The conditions noted are these: Homo sapiens, MCF7; CCK-8, 48 h, mean ± SD of three experiments; read-out: IC50 MCF-7. The protocol:
(§1) After synthesis and characterization, the isolongifolenone bicyclocaprolactam derivatives were evaluated for their in vitro antiproliferative activity against three cancer cell lines (MCF-7, HepG2, A549) using a CCK-8 assay. […] In general, the antiproliferative activities of most of these compounds were similar, irrespective of whether electron-withdrawing or electron-donating substituents were introduced in the phenoxy ring.
(§2) Three cancer cell lines (human breast adenocarcinoma cells MCF-7, human lung adenocarcinoma epithelial cells A549, and human hepatocellular carcinoma cells HepG2) were obtained from the Cell Bank of the Chinese Academy of Sciences (Shanghai, China). LO2 human normal liver cells were also purchased from STEM RECELL (Beijing, China, STM-CL-5770). The anti-proliferation activity of compounds was tested on three cancer cell lines. The cytotoxicity of compounds as tested on normal cell line (human normal liver cells LO2). Cells were seeded at a density of 5000 cells per well in 96-well plates. Natural product piperlongumine was used as the positive control. All experiments were performed in triplicate. Three cancer cell lines were cultured in High DMEM medium or RIPM 1640 containing 10% FBS (Sijiqing, Hangzhou, China) and 1% antibiotics at 37 °C in a 5% CO2 incubator. The experimental cells were seeded in a 96-well plate at 5000 cells per well and incubated for 24 h. The old medium was replaced with experimental medium, and the cells were cultured for 48 h. Afterward, 10 µL of CCK-8 solution was added to each well, and the cells were incubated for 3 h. The absorbance at 450 nm was measured using a microplate reader.
On the technique in general: Tetrazolium dyes change colour on reduction, which living cells bring about.

The test system of the next test is HepG2. Description: CCK-8 antiproliferative assay, HepG2. The settings on record: Homo sapiens, HepG2; CCK-8, 48 h, mean ± SD of three experiments; read-out: IC50 HepG2. The test is classed as cell-based. How it is done:
as §1, §2

In the next test the test system is LO2. Briefly: CCK-8 cytotoxicity on normal cell line LO2. The settings on record: Homo sapiens, L02; normal liver cells, CCK-8, 48 h, mean ± SD of three experiments. The test is classed as cell-based. How it is done: as §2
Test [1] has as its system MCF-7 cells. Briefly: Annexin V/PI apoptosis assay by flow cytometry. The test is classed as cell-based, human. The protocol:
The ability of drugs to induce cancer cell apoptosis is a key indicator of their chemotherapeutic potential. […] To examine the apoptotic effects of E10, an Annexin V-FITC dual-staining assay (with flow cytometric analysis) was performed. As shown in Figure 3A (also Figure 3C), treatment with increasing concentrations of E10 induced a marked elevation in apoptotic cell populations.
Autophagy has bidirectional regulation effects on cell survival. To confirm the role of autophagy in E10-induced cell death, 3-MA was used as an autophagy blocker.
MCF-7 cells were seeded at a density of 6 × 10^5 cells per well in 12-well plates and incubated in a 37 °C, 5% CO2 incubator for 24 h. After treatment with different concentrations of compound E10, the cells were washed with PBS two times, collected by trypsin enzymic digestion and centrifugation, and the collected cells were subsequently stained with 5 µL Annexin V-APC (YSRIBIO-C1084) and 5 µL PI for 10 min in the dark conditions. The cell apoptosis was measured with the flow cytometry (BD), and the data were analyzed by flowjo 10.6 software.
(A flow cytometer gives signals particle by particle.)

In test [2] the test system is MCF-7 cells. Briefly: Monodansylcadaverine (MDC) staining assay for autophagy. The format is cell-based, human. The settings on record: 24 h, compared with control; 3-MA as co-treatment with E10. The protocol:
To investigate whether E10 induced autophagy in MCF-7 cells, we performed Monodansylcadaverine (MDC) staining, transmission electron microscopy (TEM), and Western blot analysis to evaluate autophagy-related markers. MDC is a fluorescent probe commonly used to detect the formation of autophagic vacuoles, as it specifically labels autophagosomes.
MDC is a staining indicator for the formation of autophagosome. MCF-7 cells were seeded at a density of 2 × 10^5 cells per well in 6-well plates. MCF-7 cells were inoculated into a 6-well plate, and the cells were treated with E10 for 24 h. The treated cells were washed twice with buffer and then stained with MDC (Beijing Solarbio Science & Technology Co., Ltd., Beijing, China) for 40 min. The cells were then detected under a fluorescence microscope (Carl Zeiss, Jena, Germany).

Test [3] concerns MCF-7 cells. Briefly: Western blotting of autophagy, AMPK-mTOR and apoptosis proteins. The test is classed as cell-based, human. The protocol: MCF-7 exponentially growing cells were plated in 6-well plates (2 × 10^5 cells/well). Then, derivatives E10 (0.5, 1.0 and 2.0 μM) were added to the well. After incubation for an additional 48 h, the cell culture medium was removed, and the cells were washed twice with ice-cold PBS. Subsequently, the cells were lysed to extract the total protein and centrifuged at 12,000 rpm for 5 min at 4 °C using lysis buffer (Beyotime, Shanghai, China, Cat. # P0013E). All protein concentrations were determined using a BCA kit. Equal amounts of protein (20–30 µg per lane) were loaded onto the gel. An equal amount of protein was analyzed using 12% SDS-PAGE gels and transferred to Hybond-P membrane containing polyvinylidene difluoride (PVDF). The membranes were then blocked with BSA for 2 h at room temperature and incubated with primary antibodies against p-mTOR (ImmunoWay Biotechnology, Beijing, China, YP1444, 1:5000), P62 (Proteintech Group, Inc., Wuhan, China, 60268-1-IG, 1:5000), LC3-I/II (Proteintech Group, Inc., Wuhan, China, 10253-2-AP, 1:5000) and p-AMPK, AMPK, Bcl-2, Bax, Cleaved-caspase 7 (ImmunoWay Biotechnology, Beijing, China, YP0251, 1:5000) overnight at 4 °C and with secondary antibodies (AP-conjugated goat anti-rabbit or anti-mouse, 1:10,000) for 2 h. Densitometry was performed in ImageJ 2 within the linear range. Targets were normalized to β-actin (or to the corresponding total protein for phospho-target), then expressed relative to vehicle (0.1% DMSO = 1.0). Where indicated, ratios such as LC3-II/LC3-I and Bax/Bcl-2 were calculated per lane before statistics.
(In western blotting, separated proteins are transferred to a membrane and probed.)

Setting [4] is: Figure 6A, E10 or E10 + 3MA, 24 h.

As for `CC1(C)C2=CC(=O)N(C(=O)C=Cc3cccc(C(F)(F)F)c3)CC(C)(C)C23CCC1C3` (stereo not drawn) [E10, 5,5,9,9-Tetramethyl-3-(3-(3-(trifluoromethyl)phenyl)acryloyl)-4,5,6,7,8,9-hexahydro-5a,8-methanobenzo[d]azepin-2(3H)-one], the IC50 (in general, the concentration needed to halve the response being measured) with MCF-7 is 320 ± 50 nM. For the same compound, in the test with HepG2, the IC50 is 1360 ± 180 nM. This compound also yielded an IC50 in the test with LO2 of 14410 ± 40 nM. In addition, the apoptosis rate in the test on MCF-7 cells [1] (E10 0.5 µM, 24 h) was determined as 7.78%. For the same compound, the apoptosis rate in the test on MCF-7 cells [1] (E10 1.0 µM, 24 h) is on record as 19.53%. Besides, the apoptosis rate in the test with MCF-7 cells [1] (E10 2.0 µM, 24 h) was 24.93%. In addition, in the test with MCF-7 cells [1] (setting [4]), the Q1 necrotic cells turned out to be 15.9, the “Q2 late apoptotic cells” value stood at 9.62, the “Q3 early apoptotic cells” value is 0.47 and the Q4 viable cells came to 74.0. Also, the “cell apoptosis with or without autophagy blocker 3-MA” value in the test on MCF-7 cells [1] (Figure 6A, in comparison with control) is “significantly increased”. Moreover, in the test on MCF-7 cells [2], the “MDC staining, autophagosome formation” value is recorded as “significantly increased the number of punctate green fluorescence signals”. In the test with MCF-7 cells [3] (E10 0.5, 1.0, 2.0 μM), the AMPK phosphorylation levels result is “increased”, the mTOR phosphorylation levels result is “strongly decreased” and the p62 expression result was “decrease”. For the same compound, the “LC3-I and LC3-II expression levels” value in the test with MCF-7 cells [3] (after E10 treatment) was “up-regulated”. Further, in the test on MCF-7 cells [3] (compared with control), the Bax expression entry is given as “higher levels” and the Bcl-2 expression entry is “down-regulated”. For the same compound, in the test on MCF-7 cells [3] (dose-dependent), the “cleaved caspase-7 expression” value is “dramatically up-regulated” and the p53 expression result is recorded as “dramatically up-regulated”. For the same compound, in the test on MCF-7 cells [3] (increasing concentrations of E10 (0.5, 1.0, 2.0 μM)), the “ratio of LC3-II/LC3-I” value is on record as “increased gradually”.
